# In PubChem BioAssay AID248 (DTP/NCI, 2004):
# Toxic doses and inconclusive results are not listed.
# Test system: L1210 leukemia ip in BDF1 mice, survival T/C
# Test: NCI In Vivo Anticancer Drug Screen. Data for tumor model L1210 Leukemia (intraperitoneal) in B6D2F1 (BDF1) mice
# Conditions: endpoint: mean survival time, higher = longer survival
# Method in brief: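 Each compound was tested against a transplantable tumor grown in mice. The endpoint was survival, with treated animals benchmarked against vehicle controls as a simple ratio.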
Structure (SMILES),"T/C (dose: 100.0 mg/kg/injection, schedule: Q01DX009 (ip), vehicle: Klucel (hydroxypropylcellulose) (HPC))","T/C (dose: 200.0 mg/kg/injection, schedule: Q01DX009 (ip), vehicle: Klucel (hydroxypropylcellulose) (HPC))","T/C (dose: 400.0 mg/kg/injection, schedule: Q01DX009 (ip), vehicle: Klucel (hydroxypropylcellulose) (HPC))","T/C (dose: 75.0 mg/kg/injection, schedule: Q01DX001 (ip), vehicle: carboxymethylcellulose (CMC))"
CCCCCCCCCC(=O)N/N=C/c1c[nH]c2ccccc12,95 % of control,114 % of control,100 % of control,
CC/C=C(\C)C1(C(C)C)C(=O)NC(=O)NC1=O,,,,105 % of control
